Legend:
Felis catus [1] = assay: Effect of intraperitoneal infusion of compound on cardiac frequency in Anesthetized cats at a dose of 200 mg/kg at 135 min; format: functional, Heart
Oryctolagus cuniculus [2] = organism: Oryctolagus cuniculus; assay: Effect on 35 mM K+-induced contraction on rabbit aorta at a dose of 3*10e-9 mol/L; format: functional
Cavia porcellus [3] = organism: Cavia porcellus; assay: Chronotropic activity on left and right guinea pig artia (beats/min), at 45 min; format: functional
Felis catus [4] = assay: Effect of intravenous infusion on respiration frequency in Anesthetized cats at a dose of 0.30 mg/kg at 2 min; format: functional; details: dose 0.3 mg/kg
Felis catus [5] = assay: Effect of intravenous infusion on cardiac frequency in Anesthetized cats at a dose of 0.00 mg/kg at 0 min; format: functional, Heart
Felis catus [6] = assay: Effect of intraperitoneal infusion on respiration frequency in Anesthetized cats at a dose of 200 mg/kg at 120 min; format: functional
Felis catus [7] = assay: Effect of intraperitoneal infusion on systolic pressure in Anesthetized cats at a dose of 200 mg/kg at 60 min; format: functional
Felis catus [8] = assay: Effect of intraperitoneal infusion of compound on cardiac frequency in Anesthetized cats at a dose of 200 mg/kg at 150 min; format: functional, Heart
Felis catus [9] = assay: Effect of intraperitoneal infusion of compound on cardiac frequency in Anesthetized cats at a dose of 200 mg/kg at 90 min; format: functional, Heart
Felis catus [10] = assay: Effect of intravenous infusion on diastolic pressure in Anesthetized cats at a dose of 1.50 mg/kg at 10 min; format: functional; details: dose 1.5 mg/kg
Felis catus [11] = assay: Effect of intraperitoneal infusion on respiration frequency in Anesthetized cats at a dose of 200 mg/kg at 135 min; format: functional
Felis catus [12] = assay: Effect of intraperitoneal infusion of compound on cardiac frequency in Anesthetized cats at a dose of 200 mg/kg at 30 min; format: functional, Heart
Felis catus [13] = assay: Effect of intraperitoneal infusion of compound on cardiac frequency in Anesthetized cats at a dose of 200 mg/kg at 180 mins; format: functional, Heart
Felis catus [14] = assay: Effect of intraperitoneal infusion on systolic pressure in Anesthetized cats at a dose of 200 mg/kg at 30 min; format: functional
Felis catus [15] = assay: Effect of intraperitoneal infusion on diastolic pressure in Anesthetized cats at a dose of 200 mg/kg at 150 min; format: functional
Felis catus [16] = assay: Effect of intraperitoneal infusion of compound on cardiac frequency in Anesthetized cats at a dose of 200 mg/kg at 75 min; format: functional, Heart
Felis catus [17] = assay: Effect of intravenous infusion on cardiac frequency in Anesthetized cats at a dose of 3 mg/kg at 20 min; format: functional, Heart
Felis catus [18] = assay: Effect of intravenous infusion on cardiac frequency in Anesthetized cats at a dose of 0.30 mg/kg at 2 min; format: functional, Heart; details: dose 0.3 mg/kg
Felis catus [19] = assay: Effect of intravenous infusion on diastolic pressure in Anesthetized cats at a dose of 0.15 mg/kg at 1 min; format: functional
Felis catus [20] = assay: Effect of intravenous infusion on respiration frequency in Anesthetized cats at a dose of 0.75 mg/kg at 5 min; format: functional
Felis catus [21] = assay: Effect of intraperitoneal infusion of compound on cardiac frequency in Anesthetized cats at a dose of 200 mg/kg at 105 min; format: functional, Heart
Felis catus [22] = assay: Effect of intraperitoneal infusion on systolic pressure in Anesthetized cats at a dose of 200 mg/kg at 90 min; format: functional
Cavia porcellus [23] = organism: Cavia porcellus; assay: Effect on guinea pig artia (beats/min), at the a dose of 10e-7 M; format: functional
Cavia porcellus [24] = organism: Cavia porcellus; assay: Effect on guinea pig artia (beats/min), at the a dose of 10e-9 M; format: functional
Felis catus [25] = assay: Effect of intravenous infusion on diastolic pressure in Anesthetized cats at a dose of 0.75 mg/kg at 5 min; format: functional
Felis catus [26] = assay: Effect of intraperitoneal infusion on systolic pressure in Anesthetized cats at a dose of 200 mg/kg at 75 min; format: functional
Felis catus [27] = assay: Effect of intraperitoneal infusion on respiration frequency in Anesthetized cats at a dose of 200 mg/kg at 105 min; format: functional
Felis catus [28] = assay: Effect of intraperitoneal infusion on systolic pressure in Anesthetized cats at a dose of 200 mg/kg at 135 min; format: functional
Felis catus [29] = assay: Effect on cardiac frequency in Anesthetized cats at a dose of 2.25 mg/kg at 15 min; format: functional, Heart
Oryctolagus cuniculus [30] = organism: Oryctolagus cuniculus; assay: Effect on 35 mM K+-induced contraction on rabbit aorta at a dose of 3*10e-7 mol/L; format: functional
Felis catus [31] = assay: Effect of intraperitoneal infusion on respiration frequency in Anesthetized cats at a dose of 200 mg/kg at 0 min; format: functional
Felis catus [32] = assay: Effect of intravenous infusion on systolic pressure in Anesthetized cats at a dose of 0 mg/kg at 0 min; format: functional
Oryctolagus cuniculus [33] = organism: Oryctolagus cuniculus; assay: Effect on 35 mM K+-induced contraction on rabbit aorta at a dose of 3*10e-8 mol/L; format: functional
Cavia porcellus [34] = organism: Cavia porcellus; assay: Chronotropic activity on left and right guinea pig artia (beats/min), at 180 min; format: functional
Felis catus [35] = assay: Effect of intravenous infusion on systolic pressure in Anesthetized cats at a dose of 1.50 mg/kg at 10 min; format: functional; details: dose 1.5 mg/kg
Felis catus [36] = assay: Effect of intraperitoneal infusion on diastolic pressure in Anesthetized cats at a dose of 200 mg/kg at 45 min; format: functional
Felis catus [37] = assay: Effect of intraperitoneal infusion on respiration frequency in Anesthetized cats at a dose of 200 mg/kg at 60 min; format: functional
Felis catus [38] = assay: Effect of intraperitoneal infusion on diastolic pressure in Anesthetized cats at a dose of 200 mg/kg at 60 min; format: functional
Cavia porcellus [39] = organism: Cavia porcellus; assay: Effect on guinea pig artia (beats/min), at the a dose of 10e-6 M; format: functional
Felis catus [40] = assay: Effect of intraperitoneal infusion on respiration frequency in Anesthetized cats at a dose of 200 mg/kg at 15 min; format: functional
Felis catus [41] = assay: Effect of intraperitoneal infusion on respiration frequency in Anesthetized cats at a dose of 200 mg/kg at 90 min; format: functional
Felis catus [42] = assay: Effect of intraperitoneal infusion on systolic pressure in Anesthetized cats at a dose of 200 mg/kg at 45 min; format: functional
Felis catus [43] = assay: Effect of intraperitoneal infusion of compound on cardiac frequency in Anesthetized cats at a dose of 200 mg/kg at 60 min; format: functional, Heart
Felis catus [44] = assay: Effect of intravenous infusion on systolic pressure in Anesthetized cats at a dose of 0.30 mg/kg at 2 min; format: functional; details: dose 0.3 mg/kg
Felis catus [45] = assay: Effect of intraperitoneal infusion on systolic pressure in Anesthetized cats at a dose of 200 mg/kg at 165 min; format: functional
Felis catus [46] = assay: Effect of intraperitoneal infusion on systolic pressure in Anesthetized cats at a dose of 200 mg/kg at 15 min; format: functional
Felis catus [47] = assay: Effect of intraperitoneal infusion on diastolic pressure in Anesthetized cats at a dose of 200 mg/kg at 135 min; format: functional

CCO/C(O)=C1\C(C)=NC(C)=C(C(=O)OCCN2C(=O)c3ccccc3S2(=O)=O)C1C (configuration not stated)
Cardiac frequency (Felis catus [1]): 271 beats min-1
Inhibition (Oryctolagus cuniculus [2]): 0%
Beats/min (Cavia porcellus [3]): 138
Control (Cavia porcellus [3]): 100.4%
Respiratory frequency (Felis catus [4]): 18 r.p.m.
Cardiac frequency (Felis catus [5]): 190 beats min-1
Respiratory frequency (Felis catus [6]): 13 r.p.m.
Arterial pressure (Felis catus [7]): 130 mmHg
Cardiac frequency (Felis catus [8]): 265 beats min-1
Cardiac frequency (Felis catus [9]): 256 beats min-1
Arterial pressure (Felis catus [10]): 110 mmHg
Respiratory frequency (Felis catus [11]): 15 r.p.m.
Cardiac frequency (Felis catus [12]): 245 beats min-1
Cardiac frequency (Felis catus [13]): 276 beats min-1
Arterial pressure (Felis catus [14]): 135 mmHg
Arterial pressure (Felis catus [15]): 80 mmHg
Cardiac frequency (Felis catus [16]): 255 beats min-1
Cardiac frequency (Felis catus [17]): 216 beats min-1
Cardiac frequency (Felis catus [18]): 190 beats min-1
Arterial pressure (Felis catus [19]): 115 mmHg
Respiratory frequency (Felis catus [20]): 19 r.p.m.
Cardiac frequency (Felis catus [21]): 259 beats min-1
Arterial pressure (Felis catus [22]): 138 mmHg
Beats/min (Cavia porcellus [23]): 181
Control (Cavia porcellus [23]): 98.6%
Beats/min (Cavia porcellus [24]): 193
Control (Cavia porcellus [24]): 105.6%
Arterial pressure (Felis catus [25]): 112 mmHg
Arterial pressure (Felis catus [26]): 137 mmHg
Respiratory frequency (Felis catus [27]): 12 r.p.m.
Arterial pressure (Felis catus [28]): 140 mmHg
Cardiac frequency (Felis catus [29]): 217 beats min-1
Inhibition (Oryctolagus cuniculus [30]): 23.89%
Respiratory frequency (Felis catus [31]): 14 r.p.m.
Arterial pressure (Felis catus [32]): 165 mmHg
Inhibition (Oryctolagus cuniculus [33]): 0%
Beats/min (Cavia porcellus [34]): 130
Control (Cavia porcellus [34]): 94.9%
Arterial pressure (Felis catus [35]): 160 mmHg
Arterial pressure (Felis catus [36]): 85 mmHg
Respiratory frequency (Felis catus [37]): 13 r.p.m.
Arterial pressure (Felis catus [38]): 85 mmHg
Beats/min (Cavia porcellus [39]): 181
Control (Cavia porcellus [39]): 98.5%
Respiratory frequency (Felis catus [40]): 14 r.p.m.
Respiratory frequency (Felis catus [41]): 12 r.p.m.
Arterial pressure (Felis catus [42]): 125 mmHg
Cardiac frequency (Felis catus [43]): 256 beats min-1
Arterial pressure (Felis catus [44]): 165 mmHg
Arterial pressure (Felis catus [45]): 142 mmHg
Arterial pressure (Felis catus [46]): 130 mmHg
Arterial pressure (Felis catus [47]): 80 mmHg
